In PubChem BioAssay AID1259407 (Chemical Carcinogenesis Research Information System (CCRIS), 2018):
Activity calls are given as the source filed them. How the calls were made is not given here.

System: CCRIS mutagenicity, Ames/micronucleus/aberration tests
Assay: CCRIS mutagenicity studies
[1] = Test System: AMES SALMONELLA TYPHIMURIUM, Strain/Indicator: TA98, Metabolic Activation: NONE, Method: STANDARD PLATE
[2] = Test System: AMES SALMONELLA TYPHIMURIUM, Strain/Indicator: TA100, Metabolic Activation: NONE, Method: STANDARD PLATE
[3] = Test System: AMES SALMONELLA TYPHIMURIUM, Strain/Indicator: TA98, Metabolic Activation: NONE, Method: PREINCUBATION
[4] = Test System: AMES SALMONELLA TYPHIMURIUM, Strain/Indicator: TA98, Metabolic Activation: RAT LIVER S-9, PHENOBARBITAL AND BETA-NAPHTHOFLAVONE, Method: PREINCUBATION
[5] = Test System: AMES SALMONELLA TYPHIMURIUM, Strain/Indicator: TA100, Metabolic Activation: NONE, Method: PREINCUBATION
[6] = Test System: AMES SALMONELLA TYPHIMURIUM, Strain/Indicator: TA100, Metabolic Activation: RAT LIVER S-9, PHENOBARBITAL AND BETA-NAPHTHOFLAVONE, Method: PREINCUBATION
[7] = Test System: AMES SALMONELLA TYPHIMURIUM, Strain/Indicator: TA1535, Metabolic Activation: NONE, Method: PREINCUBATION
[8] = Test System: AMES SALMONELLA TYPHIMURIUM, Strain/Indicator: TA1535, Metabolic Activation: RAT LIVER S-9, PHENOBARBITAL AND BETA-NAPHTHOFLAVONE, Method: PREINCUBATION
[9] = Test System: AMES SALMONELLA TYPHIMURIUM, Strain/Indicator: TA1537, Metabolic Activation: NONE, Method: PREINCUBATION
[10] = Test System: AMES SALMONELLA TYPHIMURIUM, Strain/Indicator: TA1537, Metabolic Activation: RAT LIVER S-9, PHENOBARBITAL AND BETA-NAPHTHOFLAVONE, Method: PREINCUBATION
[11] = Test System: E.COLI, Strain/Indicator: WP2UVRA, Metabolic Activation: NONE, Method: PREINCUBATION
[12] = Test System: E.COLI, Strain/Indicator: WP2UVRA, Metabolic Activation: RAT LIVER S-9, PHENOBARBITAL AND BETA-NAPHTHOFLAVONE, Method: PREINCUBATION

P
mutagenic call (Test System: AMES SALMONELLA TYPHIMURIUM, Strain/Indicator: TA98, Metabolic Activation: NONE, Method: GAS EXPOSURE): inactive; negative
mutagenic call (Test System: AMES SALMONELLA TYPHIMURIUM, Strain/Indicator: TA98, Metabolic Activation: RAT LIVER S-9, PHENOBARBITAL AND BETA-NAPHTHOFLAVONE, Method: GAS EXPOSURE): inactive; negative
mutagenic call (Test System: AMES SALMONELLA TYPHIMURIUM, Strain/Indicator: TA100, Metabolic Activation: NONE, Method: GAS EXPOSURE): inactive; negative
mutagenic call (Test System: AMES SALMONELLA TYPHIMURIUM, Strain/Indicator: TA100, Metabolic Activation: RAT LIVER S-9, PHENOBARBITAL AND BETA-NAPHTHOFLAVONE, Method: GAS EXPOSURE): inactive; negative
mutagenic call (Test System: AMES SALMONELLA TYPHIMURIUM, Strain/Indicator: TA1535, Metabolic Activation: NONE, Method: GAS EXPOSURE): inactive; negative
mutagenic call (Test System: AMES SALMONELLA TYPHIMURIUM, Strain/Indicator: TA1535, Metabolic Activation: RAT LIVER S-9, PHENOBARBITAL AND BETA-NAPHTHOFLAVONE, Method: GAS EXPOSURE): inactive; negative
mutagenic call (Test System: AMES SALMONELLA TYPHIMURIUM, Strain/Indicator: TA1537, Metabolic Activation: NONE, Method: GAS EXPOSURE): inactive; negative
mutagenic call (Test System: AMES SALMONELLA TYPHIMURIUM, Strain/Indicator: TA1537, Metabolic Activation: RAT LIVER S-9, PHENOBARBITAL AND BETA-NAPHTHOFLAVONE, Method: GAS EXPOSURE): inactive; negative
mutagenic call (Test System: E.COLI, Strain/Indicator: WP2UVRA, Metabolic Activation: NONE, Method: GAS EXPOSURE): inactive; negative
mutagenic call (Test System: E.COLI, Strain/Indicator: WP2UVRA, Metabolic Activation: RAT LIVER S-9, PHENOBARBITAL AND BETA-NAPHTHOFLAVONE, Method: GAS EXPOSURE): inactive; negative

CN(N=O)C(=O)c1c(N(C)C(=O)OC(C)(C)C)ncn1C
mutagenic call [1]: inactive; negative
mutagenic call (Test System: AMES SALMONELLA TYPHIMURIUM, Strain/Indicator: TA98, Metabolic Activation: S-9, Method: STANDARD PLATE): inactive; negative
mutagenic call [2]: active; positive
mutagenic call (Test System: AMES SALMONELLA TYPHIMURIUM, Strain/Indicator: TA100, Metabolic Activation: S-9, Method: STANDARD PLATE): active; positive
mutagenic call (Test System: AMES SALMONELLA TYPHIMURIUM, Strain/Indicator: TA102, Metabolic Activation: NONE, Method: STANDARD PLATE): inactive; negative
mutagenic call (Test System: AMES SALMONELLA TYPHIMURIUM, Strain/Indicator: TA102, Metabolic Activation: S-9, Method: STANDARD PLATE): active; positive
mutagenic call (Test System: AMES SALMONELLA TYPHIMURIUM, Strain/Indicator: TA1535, Metabolic Activation: NONE, Method: STANDARD PLATE): active; positive
mutagenic call (Test System: AMES SALMONELLA TYPHIMURIUM, Strain/Indicator: TA1535, Metabolic Activation: S-9, Method: STANDARD PLATE): active; positive
mutagenic call (Test System: AMES SALMONELLA TYPHIMURIUM, Strain/Indicator: TA1537, Metabolic Activation: NONE, Method: STANDARD PLATE): inactive; negative
mutagenic call (Test System: AMES SALMONELLA TYPHIMURIUM, Strain/Indicator: TA1537, Metabolic Activation: S-9, Method: STANDARD PLATE): inactive; negative

O=C(ON=C1C=CC(=NOC(=O)c2ccccc2)C=C1)c1ccccc1
mutagenic call (End Point: IN VITRO CHROMOSOMAL ABERRATIONS, Test System: CHL CELLS, Metabolic Activation: RAT, LIVER, S-9, SODIUM PHENOBARBITAL AND 5,6-BENZOFLAVONE): inactive; negative
mutagenic call [3]: active; positive
mutagenic call [4]: active; positive
mutagenic call [5]: inactive; negative
mutagenic call [6]: active; positive
mutagenic call [7]: inactive; negative
mutagenic call [8]: inactive; negative
mutagenic call [9]: inactive; negative
mutagenic call [10]: active; positive
mutagenic call (Test System: AMES SALMONELLA TYPHIMURIUM, Strain/Indicator: TA1538, Metabolic Activation: NONE, Method: PREINCUBATION): active; positive
mutagenic call (Test System: AMES SALMONELLA TYPHIMURIUM, Strain/Indicator: TA1538, Metabolic Activation: RAT LIVER S-9, PHENOBARBITAL AND BETA-NAPHTHOFLAVONE, Method: PREINCUBATION): active; positive
mutagenic call [11]: inactive; negative
mutagenic call [12]: inactive; negative

C=C(C)c1ccc(C)c2ccc(CO)c-2c1
mutagenic call [1]: inactive; negative
mutagenic call (Test System: AMES SALMONELLA TYPHIMURIUM, Strain/Indicator: TA98, Metabolic Activation: RAT, LIVER, S-9, AROCLOR 1254, Method: STANDARD PLATE): active; positive
mutagenic call [2]: inactive; negative
mutagenic call (Test System: AMES SALMONELLA TYPHIMURIUM, Strain/Indicator: TA100, Metabolic Activation: RAT, LIVER, S-9, AROCLOR 1254, Method: STANDARD PLATE): active; positive

C1COCCN1
mutagenic call [3]: inactive; negative
mutagenic call [4]: inactive; negative
mutagenic call (Test System: AMES SALMONELLA TYPHIMURIUM, Strain/Indicator: TA98, Metabolic Activation: RAT, LIVER, S-9, PCB, Method: PREINCUBATION): inactive; negative
mutagenic call [5]: inactive; negative
mutagenic call [6]: inactive; negative
mutagenic call (Test System: AMES SALMONELLA TYPHIMURIUM, Strain/Indicator: TA100, Metabolic Activation: RAT, LIVER, S-9, PCB, Method: PREINCUBATION): inactive; negative
mutagenic call [7]: inactive; negative
mutagenic call [8]: inactive; negative
mutagenic call [9]: inactive; negative
mutagenic call [10]: inactive; negative
mutagenic call [11]: inactive; negative
mutagenic call [12]: inactive; negative

Cc1ccc2cc([N+](=O)[O-])ccc2c1
mutagenic call [3]: active; positive

O=C1c2ccccc2-c2ccc3c4c(ccc1c24)-c1ccccc1C3=O
mutagenic call (Test System: AMES SALMONELLA TYPHIMURIUM, Strain/Indicator: TA98, Metabolic Activation: HAMSTER, LIVER, S-9, AROCLOR 1254 (10%), Method: PREINCUBATION): inactive; negative
mutagenic call [3]: inactive; negative
mutagenic call (Test System: AMES SALMONELLA TYPHIMURIUM, Strain/Indicator: TA98, Metabolic Activation: RAT, LIVER, S-9, AROCLOR 1254 (10%), Method: PREINCUBATION): inactive; negative
mutagenic call (Test System: AMES SALMONELLA TYPHIMURIUM, Strain/Indicator: TA100, Metabolic Activation: HAMSTER, LIVER, S-9, AROCLOR 1254 (10%), Method: PREINCUBATION): inactive; negative
mutagenic call [5]: inactive; negative
mutagenic call (Test System: AMES SALMONELLA TYPHIMURIUM, Strain/Indicator: TA100, Metabolic Activation: RAT, LIVER, S-9, AROCLOR 1254 (10%), Method: PREINCUBATION): inactive; negative
mutagenic call (Test System: AMES SALMONELLA TYPHIMURIUM, Strain/Indicator: TA1535, Metabolic Activation: HAMSTER, LIVER, S-9, AROCLOR 1254 (10%), Method: PREINCUBATION): inactive; negative
mutagenic call [7]: inactive; negative
mutagenic call (Test System: AMES SALMONELLA TYPHIMURIUM, Strain/Indicator: TA1535, Metabolic Activation: RAT, LIVER, S-9, AROCLOR 1254 (10%), Method: PREINCUBATION): inactive; negative
mutagenic call (Test System: AMES SALMONELLA TYPHIMURIUM, Strain/Indicator: TA1537, Metabolic Activation: HAMSTER, LIVER, S-9, AROCLOR 1254 (10%), Method: PREINCUBATION): inactive; negative
mutagenic call [9]: inactive; negative
mutagenic call (Test System: AMES SALMONELLA TYPHIMURIUM, Strain/Indicator: TA1537, Metabolic Activation: RAT, LIVER, S-9, AROCLOR 1254 (10%), Method: PREINCUBATION): inactive; negative
mutagenic call (Test System: MOUSE LYMPHOMA, Strain/Indicator: L5178Y (TK+/TK-), Metabolic Activation: RAT, LIVER, S-9, AROCLOR, Method: SUSPENSION/PLATE): active; positive
